Data published in publication PMC10315211 (Molecular microbiology, 2023).

Biological target: CpdAEc (N-His-CpdAEc) (Escherichia coli, UniProt P0AEW4)
Type: biochemical
Settings: 50 mM Tris-HCl pH 8.0, 0.14 M NaCl, 2 mM MgCl2, room temperature

CpdAEc (N-His-CpdAEc), sequence (P0AEW4 whole entry): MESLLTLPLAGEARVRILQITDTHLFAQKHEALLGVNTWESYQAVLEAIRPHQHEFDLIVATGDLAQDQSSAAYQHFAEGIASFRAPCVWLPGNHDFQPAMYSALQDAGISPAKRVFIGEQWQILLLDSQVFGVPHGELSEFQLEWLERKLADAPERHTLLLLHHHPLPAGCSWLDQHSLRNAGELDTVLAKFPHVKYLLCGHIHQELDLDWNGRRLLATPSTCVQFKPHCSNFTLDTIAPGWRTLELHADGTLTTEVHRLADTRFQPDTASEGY

For `C[N+](C)(C)CCOP(=O)([O-])OC[C@H](O)CO` [glycerophosphocholine], the “choline oxidase / HRP coupled Amplex Red fluorometric assay” value was “both Rv0805 and CpdAEc produced choline and Gly3P from glycerophosphocholine (GPC)”.
